Activity calls are given as the source filed them. No cut-off for these calls is given here.
Legend:
Vero [1] = test: (§1) Cytotoxicity against African green monkey Vero cells assessed as reduction in cell viability measured after 1 hr by MTT assay; assay type: cell-based; conditions: chlorocebus sabaeus, vero, 1 h
[2] = as §1; assay type: cell-based; conditions: chlorocebus sabaeus, Vero cells
Zika virus [3] = test: Antiviral activity against Zika virus PE243 infected in African green monkey Vero cells assessed as reduction in viral replication by measuring viral titer at CC20 incubated for 5 days by standard TCID50 method; assay type: functional, organism-based
Zika virus [4] = test: Antiviral activity against Zika virus PE243 infected in African green monkey Vero cells assessed as reduction in viral replication by measuring viral titer per ml of cells at CC20 incubated for 5 days by standard TCID50 method (reference value: 6.7); assay type: functional
Vero [5] = test: (§2) Cytotoxicity against African green monkey Vero cells assessed as reduction in cell viability measured after 120 hrs by MTT assay; assay type: cell-based; conditions: chlorocebus sabaeus, vero, 120 h
[6] = as §2; assay type: cell-based; conditions: chlorocebus sabaeus, Vero cells

Row | SMILES | CC20 (Vero [1]) [µM] | CC50 at 1 h [2] [µM] | inhibition (Zika virus [3]) | log10 TCID50 (Zika virus [4]) | CC20 (Vero [5]) [µM] | CC50 at 120 h [6] [µM]
1 | CCCCCCCC/C=C\CCCC(=O)O[C@@]12C[C@@H](C)[C@@]3(O)[C@@H](C=C(CO)C[C@]4(O)C(=O)C(C)=C[C@@H]34)[C@@H]1C2(C)C | 8.7 to 328 | 24.6 to 848 | Active | 1.8 | – | –
2 | CCCCCCCCCCCCCC(=O)O[C@@]12C[C@@H](C)[C@@]3(O)[C@@H](C=C(CO)C[C@]4(O)C(=O)C(C)=C[C@@H]34)[C@@H]1C2(C)C | 8.7 to 328 | 24.6 to 848 | Active | – | – | –
3 | CCCCCCCCCCCCCCCC(=O)O[C@@H]1[C@@H](C)[C@]2(O)[C@@H]3C=C(C)C(=O)[C@@H]3CC(C=O)=C[C@H]2[C@@H]2C(C)(C)[C@]12OC(C)=O | 8.7 to 328 | 24.6 to 848 | – | – | – | –
4 | C/C(=C\C(=O)O[C@@H]1[C@H](C)C[C@H]2O[C@]1(O)[C@@H](O)[C@@]1(C)CC[C@H](O1)C(C)(C)/C=C/[C@H](C)C2=O)C(C)O (stereo partly specified) | 8.7 to 328 | – | – | – | – | –
5 | CC1(C)CC[C@@H]2C(=O)C=C3[C@]4(C)CC[C@@H]5[C@](C)(CC[C@@H](OC(=O)/C=C/c6ccccc6)[C@@]5(C)C(=O)O)[C@H]4CC[C@@]3(C)[C@@H]2C1 | 8.7 to 328 | 24.6 to 848 | Active | 1.7 | – | –
6 | CCCCCCCCCCCCCCCC(=O)O[C@@H]1[C@@H](C)[C@]2(O)[C@@H]3C=C(C)C(=O)[C@@H]3CC(CO)=C[C@H]2[C@@H]2C(C)(C)[C@]12OC(C)=O | 8.7 to 328 | 24.6 to 848 | Active | – | – | –
7 | CCCCCCCCCCCC(=O)O[C@@]12C[C@@H](C)[C@@]3(O)[C@@H](C=C(C=O)C[C@]4(O)C(=O)C(C)=C[C@@H]34)[C@@H]1C2(C)C | 8.7 to 328 | 24.6 to 848 | – | – | – | –
8 | CC/C(C)=C/C(=O)O[C@@H]1[C@H](C)C[C@H]2O[C@]1(O)[C@@H](O)[C@@]1(C)CC[C@H](O1)C(C)(C)/C=C/[C@H](C)C2=O | 8.7 to 328 | – | – | – | – | –
9 | CCCCCCCC/C=C\CCCC(=O)O[C@@]12C[C@@H](C)[C@@]3(O)[C@@H](C=C(C=O)C[C@]4(O)C(=O)C(C)=C[C@@H]34)[C@@H]1C2(C)C | 8.7 to 328 | 24.6 to 848 | – | – | – | –
10 | CC(=O)O[C@H](C)/C(C)=C/C(=O)O[C@@H]1[C@H](C)C[C@H]2O[C@]1(O)[C@@H](O)[C@@]1(C)CC[C@H](O1)C(C)(C)/C=C/[C@H](C)C2=O | 8.7 to 328 | – | – | – | – | –
11 | CC1(C)CC[C@@H]2C(=O)C=C3[C@]4(C)CC[C@@H]5[C@](C)(CC[C@@H](OC(=O)c6ccccc6)[C@@]5(C)C(=O)O)[C@H]4CC[C@@]3(C)[C@@H]2C1 | 8.7 to 328 | 24.6 to 848 | – | – | – | –
12 | CSc1ncnc2c1ncn2[C@@H]1O[C@H](CO)[C@@H](O)[C@H]1O | – | – | – | 5.4 | 60.5 | 291
13 | CCCCCCCCCCCC(=O)O[C@@]12C[C@@H](C)[C@@]3(O)[C@@H](C=C(CO)C[C@]4(O)C(=O)C(C)=C[C@@H]34)[C@@H]1C2(C)C | 8.7 to 328 | 24.6 to 848 | Active | – | – | –
